Reference: patent US20120016009A1, “Optimized Methods For Delivery Of DSRNA Targeting The PCSK9 Gene” (priority 2008, published 2012)
In the oligonucleotide strings, read from the 5' end, every base follows the letter of its sugar. An asterisk marks phosphorothioate; unmarked linkages are phosphodiester. Other units and linkages are bracketed, terminal groups are in braces. A string of capitals states the bases alone. d = 2'-deoxy (DNA); r = 2'-OH (RNA)

Tested on: PCSK9 mRNA
Assay: PCSK9 siRNA screening in HepG2 cells (lipofectamine 2000 transfection, PCSK9 mRNA by Quantigene, normalized to GAP-DH)
Format: cell-based, human
Conditions: for Mean percent remaining mRNA transcript at siRNA concentration/in cell type 3 nM/HepG2: 3 nM siRNA; for Mean percent remaining mRNA transcript at siRNA concentration/in cell type 30 nM/HepG2: 30 nM siRNA; for Mean percent remaining mRNA transcript at siRNA concentration/in cell type 100 nM/HepG2: 100 nM siRNA
Protocol: HuH-7 cells were obtained from JCRB Cell Bank (Japanese Collection of Research Bioresources) (Shinjuku, Japan, cat. No.: JCRB0403) Cells were cultured in Dulbecco's MEM (Biochrom AG, Berlin, Germany, cat. No. F0435) supplemented to contain 10% fetal calf serum (FCS) (Biochrom AG, Berlin, Germany, cat. No. S0115), Penicillin 100 U/ml, Streptomycin 100 μg/ml (Biochrom AG, Berlin, Germany, cat. No. A2213) and 2 mM L-Glutamin (Biochrom AG, Berlin, Germany, cat. No K0282) at 37° C. in an atmosphere with 5% CO2 in a humidified incubator (Heraeus HERAcell, Kendro Laboratory Products, Langenselbold, Germany) HepG2 and HeLa cells were obtained from American Type Culture Collection (Rockville, Md., cat. No. HB-8065) and cultured in MEM (Gibco Invitrogen, Karlsruhe, Germany, cat. No. 21090-022) supplemented to contain 10% fetal calf serum (FCS) (Biochrom AG, Berlin, Germany, cat. No. S0115), Penicillin 100 U/ml, Streptomycin 100 μg/ml (Biochrom AG, Berlin, Germany, cat. No. A2213), 1× Non Essential Amino Acids (Biochrom AG, Berlin, Germany, cat. No. K-0293), and 1 mM Sodium Pyruvate (Biochrom AG, Berlin, Germany, cat. No. L-0473) at 37° C. in an atmosphere with 5% CO2 in a humidified incubator (Heraeus HERAcell, Kendro Laboratory Products, Langenselbold, Germany).
For transfection with siRNA, HuH7, HepG2, or HeLa cells were seeded at a density of 2.0×10^4 cells/well in 96-well plates and transfected directly. Transfection of siRNA (30 nM for single dose screen) was carried out with lipofectamine 2000 (Invitrogen GmbH, Karlsruhe, Germany, cat. No. 11668-019) as described by the manufacturer.
24 hours after transfection HuH7 and HepG2 cells were lysed and PCSK9 mRNA levels were quantified with the Quantigene Explore Kit (Genosprectra, Dumbarton Circle Fremont, USA, cat. No. QG-000-02) according to the protocol. PCSK9 mRNA levels were normalized to GAP-DH mRNA. For each siRNA eight individual datapoints were collected. siRNA duplexes unrelated to PCSK9 gene were used as control. The activity of a given PCSK9 specific siRNA duplex was expressed as percent PCSK9 mRNA concentration in treated cells relative to PCSK9 mRNA concentration in cells treated with the control siRNA duplex.
Tables 1b and 2b (and FIG. 6A) summarize the results and provide examples of in vitro screens in different cell lines at different doses. Silencing of PCSK9 transcript was expressed as percentage of remaining transcript at a given dose.
Very active sequences are those that have less than 60% of transcript remaining after treatment with a dose less than or equal to 100 nM. Active sequences are those that have less than 90% transcript remaining after treatment with a high dose (100 nM).

Substance | IC50 [nM] | Mean percent remaining mRNA transcript at siRNA concentration/in cell type 3 nM/HepG2 [%] | Mean percent remaining mRNA transcript at siRNA concentration/in cell type 30 nM/HepG2 [%] | Mean percent remaining mRNA transcript at siRNA concentration/in cell type 100 nM/HepG2 [%]
AD-9315: PCSK9 siRNA (sense rGrCrGrGrCrArCrCrCrUrCrArUrArGrGrCrCrUdT*dT; antisense rArGrGrCrCrUrArUrGrArGrGrGrUrGrCrCrGrCdT*dT) | 0.98 | 32 | 15 | 
AD-9323: PCSK9 siRNA (sense rGrGrCrCrUrGrGrArGrUrUrUrArUrUrCrGrGrAdT*dT; antisense rUrCrCrGrArArUrArArArCrUrCrCrArGrGrCrCdT*dT) |  | 33 | 14 | 
AD-9324: PCSK9 siRNA (sense rGrCrCrArUrCrUrGrCrUrGrCrCrGrGrArGrCrCdT*dT; antisense rGrGrCrUrCrCrGrGrCrArGrCrArGrArUrGrGrCdT*dT) |  | 67 | 59 | 
AD-9326: PCSK9 siRNA (sense rGrCrArCrCrCrUrCrArUrArGrGrCrCrUrGrGrAdT*dT; antisense rUrCrCrArGrGrCrCrUrArUrGrArGrGrGrUrGrCdT*dT) |  | 51 | 35 | 
AD-9514: PCSK9 siRNA (sense rGrUrArCrCrGrGrGrCrGrGrArUrGrArArUrArCdT*dT; antisense rGrUrArUrUrCrArUrCrCrGrCrCrCrGrGrUrArCdT*dT) |  |  | 57 | 
AD-9515: PCSK9 siRNA (sense rGrGrUrArCrCrGrGrGrCrGrGrArUrGrArArUrAdT*dT; antisense rUrArUrUrCrArUrCrCrGrCrCrCrGrGrUrArCrCdT*dT) |  |  | 49 | 
AD-9516: PCSK9 siRNA (sense rUrGrUrArUrCrUrCrCrUrArGrArCrArCrCrArGdT*dT; antisense rCrUrGrGrUrGrUrCrUrArGrGrArGrArUrArCrAdT*dT) |  |  | 94 | 
AD-9517: PCSK9 siRNA (sense rGrGrArGrGrUrGrUrArUrCrUrCrCrUrArGrArCdT*dT; antisense rGrUrCrUrArGrGrArGrArUrArCrArCrCrUrCrCdT*dT) |  |  | 36 | 
AD-9519: PCSK9 siRNA (sense rCrCrCrArGrCrCrArGrGrArUrUrCrCrGrCrGrCdT*dT; antisense rGrCrGrCrGrGrArArUrCrCrUrGrGrCrUrGrGrGdT*dT) |  |  | 78 | 
AD-9521: PCSK9 siRNA (sense rCrUrCrCrUrArGrArCrArCrCrArGrCrArUrArCdT*dT; antisense rGrUrArUrGrCrUrGrGrUrGrUrCrUrArGrGrArGdT*dT) |  |  | 50 | 
AD-9522: PCSK9 siRNA (sense rArArGrGrArGrCrArUrGrGrArArUrCrCrCrGrGdT*dT; antisense rCrCrGrGrGrArUrUrCrCrArUrGrCrUrCrCrUrUdT*dT) |  |  | 59 | 
AD-9523: PCSK9 siRNA (sense rCrArGrCrCrArGrGrArUrUrCrCrGrCrGrCrGrCdT*dT; antisense rGrCrGrCrGrCrGrGrArArUrCrCrUrGrGrCrUrGdT*dT) |  |  | 55 | 
AD-9524: PCSK9 siRNA (sense rGrCrUrGrGrUrGrCrUrArGrCrCrUrUrGrCrGrUdT*dT; antisense rArCrGrCrArArGrGrCrUrArGrCrArCrCrArGrCdT*dT) | 0.07 | 28 | 23 | 
AD-9525: PCSK9 siRNA (sense rGrGrArGrUrUrUrArUrUrCrGrGrArArArArGrCdT*dT; antisense rGrCrUrUrUrUrCrCrGrArArUrArArArCrUrCrCdT*dT) |  |  | 53 | 
AD-9526: PCSK9 siRNA (sense rUrCrCrCrArGrCrCrArGrGrArUrUrCrCrGrCrGdT*dT; antisense rCrGrCrGrGrArArUrCrCrUrGrGrCrUrGrGrGrAdT*dT) |  |  | 89 | 74
AD-9527: PCSK9 siRNA (sense rGrCrCrArArCrCrCrGrCrUrCrCrArCrUrArCrCdT*dT; antisense rGrGrUrArGrUrGrGrArGrCrGrGrGrUrUrGrGrCdT*dT) |  |  | 45 | 
AD-9528: PCSK9 siRNA (sense rCrGrGrUrArCrCrGrGrGrCrGrGrArUrGrArArUdT*dT; antisense rArUrUrCrArUrCrCrGrCrCrCrGrGrUrArCrCrGdT*dT) |  |  | 113 | 
AD-9529: PCSK9 siRNA (sense rGrGrGrArUrArCrCrUrCrArCrCrArArGrArUrCdT*dT; antisense rGrArUrCrUrUrGrGrUrGrArGrGrUrArUrCrCrCdT*dT) |  |  | 60 | 
AD-9530: PCSK9 siRNA (sense rArCrCrGrGrGrCrGrGrArUrGrArArUrArCrCrAdT*dT; antisense rUrGrGrUrArUrUrCrArUrCrCrGrCrCrCrGrGrUdT*dT) |  |  | 75 | 
AD-9531: PCSK9 siRNA (sense rArArArUrCrGrArGrGrGrCrArGrGrGrUrCrArUdT*dT; antisense rArUrGrArCrCrCrUrGrCrCrCrUrCrGrArUrUrUdT*dT) | 0.53 | 32 | 31 | 
AD-9532: PCSK9 siRNA (sense rCrCrGrGrGrCrCrCrArCrArArCrGrCrUrUrUrUdT*dT; antisense rArArArArGrCrGrUrUrGrUrGrGrGrCrCrCrGrGdT*dT) |  |  | 100 | 
AD-9533: PCSK9 siRNA (sense rGrArCrCrArCrCrGrGrGrArArArUrCrGrArGrGdT*dT; antisense rCrCrUrCrGrArUrUrUrCrCrCrGrGrUrGrGrUrCdT*dT) |  |  | 100 | 
AD-9535: PCSK9 siRNA (sense rGrArGrUrGrArCrCrArCrCrGrGrGrArArArUrCdT*dT; antisense rGrArUrUrUrCrCrCrGrGrUrGrGrUrCrArCrUrCdT*dT) |  |  | 73 | 48
AD-9536: PCSK9 siRNA (sense rUrUrArUrUrCrGrGrArArArArGrCrCrArGrCrUdT*dT; antisense rArGrCrUrGrGrCrUrUrUrUrCrCrGrArArUrArAdT*dT) |  |  | 157 | 
AD-9537: PCSK9 siRNA (sense rArCrGrGrUrArCrCrGrGrGrCrGrGrArUrGrArAdT*dT; antisense rUrUrCrArUrCrCrGrCrCrCrGrGrUrArCrCrGrUdT*dT) |  |  | 145 | 
AD-9538: PCSK9 siRNA (sense rCrCrGrGrGrCrGrGrArUrGrArArUrArCrCrArGdT*dT; antisense rCrUrGrGrUrArUrUrCrArUrCrCrGrCrCrCrGrGdT*dT) |  |  | 80 | 79
AD-9539: PCSK9 siRNA (sense rGrGrUrGrGrArGrGrUrGrUrArUrCrUrCrCrUrAdT*dT; antisense rUrArGrGrArGrArUrArCrArCrCrUrCrCrArCrCdT*dT) |  |  | 63 | 56
